Measurements reported in patent publication US20250011651A1, “OIL DISPERSANT FORMULATION, METHODS AND USES THEREOF” (INSTITUTO SUPERIOR TÉCNICO, priority 2021, published 2025).

Test: Hydrophilic-lipophilic balance (HLB)
Assay type: physicochemical
Details: single surfactant / MEL mixture
Source text: Dispersants currently used in oil spills are usually a blend of non-ionic and anionic surfactants dissolved in a solvent base. Surfactants are amphiphilic molecules containing both hydrophobic and hydrophilic regions, so they are soluble in both oil and water phases. An empirical parameter used for the classification of surfactants is the hydrophilic-lipophilic balance (HLB) number. The HLB is defined as: […]
Where Mh is the molecular weight of the hydrophilic head group of the surfactant molecule, and M is the molecular mass of the complete molecule. HLB is given on a scale of 1-20. […] A surfactant with an HLB between 8 and 12 may promote either type of emulsion, but generally promotes O/W emulsions.
In an embodiment, the results can be explained by providing the molecular level discussion of the synergy between MEL and polyethylene glycol sorbitan monooleate molecules. As explained earlier, MELs are hydrophobic and polyethylene glycol sorbitan monooleate is quite hydrophilic and water soluble. The HLB of the combination of the two surfactants can be calculated by the following expression: […]
Where, WM and WPGSE are, respectively, the weight fraction of MELs and polyethylene glycol sorbitan ester, in particular polyethylene glycol sorbitan monooleate, in the blend.

polyethylene glycol sorbitan monooleate
HLB: 15
